Test results from ChEMBL document CHEMBL1139487, “Discovery of corticotropin releasing factor 2 receptor selective sauvagine analogues for treatment of skeletal muscle atrophy” (J Med Chem, 2005).
Square brackets hold non-standard residues; d marks the D form. Peptide text beside a SMILES is read from it. pGlu = O=C1CC[C@@H](C(=O)O)N1

Legend:
[1] = target: T1, Corticotropin-releasing factor receptor 1 (Mus musculus) (UniProt P35347); assay: In vitro agonistic activity against mouse corticotropin releasing factor 1 receptor; type: functional
T1 sequence (whole entry): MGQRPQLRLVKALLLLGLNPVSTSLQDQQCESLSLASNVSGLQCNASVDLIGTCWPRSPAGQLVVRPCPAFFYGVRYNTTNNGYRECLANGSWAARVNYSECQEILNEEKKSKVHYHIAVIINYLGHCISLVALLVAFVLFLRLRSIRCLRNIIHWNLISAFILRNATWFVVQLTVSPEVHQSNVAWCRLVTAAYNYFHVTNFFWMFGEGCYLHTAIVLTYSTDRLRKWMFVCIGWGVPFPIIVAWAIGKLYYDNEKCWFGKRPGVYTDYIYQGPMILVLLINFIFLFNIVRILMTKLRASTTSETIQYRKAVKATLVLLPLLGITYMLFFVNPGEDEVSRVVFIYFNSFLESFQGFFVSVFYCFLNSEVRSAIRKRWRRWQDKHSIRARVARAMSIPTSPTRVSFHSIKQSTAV

[2] = target: Corticotropin-releasing factor receptor 2 (Mus musculus) (UniProt Q60748); assay: In vitro agonistic activity against mouse corticotropin releasing factor 2 receptor; type: functional
[3] = target: T2, Corticotropin-releasing factor receptor 1 (Mus musculus, UniProt P35347); assay: In vitro effective concentration for mouse corticotropin releasing factor 1 receptor
T2 sequence (P35347 whole entry): T1 sequence (whole entry)

[4] = target: Corticotropin-releasing factor receptor 2 (Mus musculus, UniProt Q60748); assay: In vitro effective concentration for mouse corticotropin releasing factor 2 receptor
Corticotropin-releasing factor receptor 2, sequence (Q60748 whole entry): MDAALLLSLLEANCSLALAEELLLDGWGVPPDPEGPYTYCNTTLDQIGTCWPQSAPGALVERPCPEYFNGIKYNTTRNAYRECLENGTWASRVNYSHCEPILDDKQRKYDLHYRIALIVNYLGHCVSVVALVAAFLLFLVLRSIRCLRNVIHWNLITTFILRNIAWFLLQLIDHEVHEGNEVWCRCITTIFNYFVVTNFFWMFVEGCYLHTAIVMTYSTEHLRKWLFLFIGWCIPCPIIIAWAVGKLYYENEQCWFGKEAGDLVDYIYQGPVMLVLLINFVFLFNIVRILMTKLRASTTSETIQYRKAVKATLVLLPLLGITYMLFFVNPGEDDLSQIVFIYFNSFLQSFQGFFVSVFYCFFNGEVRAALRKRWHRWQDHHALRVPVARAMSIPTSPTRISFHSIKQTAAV

Corticotropin-releasing factor receptor 2 (Mus musculus), sequence (Q60748 whole entry): as above

| Compound | Emax [1] [%] | Emax [2] [%] | EC50 [3] [nM] | EC50 [4] [nM] |
| --- | --- | --- | --- | --- |
| H-IVLSLDVPIGLLQILLEQARARAAREQATTNARILARV-OH | 8 | 96 |  |  |
| CC[C@H](C)[C@H](NC(=O)[C@@H](NC(=O)[C@H](CC(=O)O)NC(=O)[C@H](CC(C)C)NC(=O)[C@H](CC(C)C)NC(=O)[C@H](CC(C)C)NC(=O)[C@H](CCCNC(=N)N)NC(=O)[C@H](CC(N)=O)NC(=O)[C@H](CC(N)=O)NC(=O)[C@H](C)NC(=O)[C@H](C)NC(=O)[C@H](CCC(N)=O)NC(=O)[C@H](CCC(N)=O)NC(=O)[C@H](CCCCN)NC(=O)[C@H](CCC(=O)O)NC(=O)[C@H](CCCCN)NC(=O)[C@H](CCC(=O)O)NC(=O)[C@H](CCC(N)=O)NC(=O)[C@H](CCCCN)NC(=O)[C@H](CCC(=O)O)NC(=O)[C@@H](NC(=O)[C@H](CCC(=O)O)NC(=O)[C@@H](NC(=O)[C@H](CCSC)NC(=O)[C@H](CCCCN)NC(=O)[C@H](CCCNC(=N)N)NC(=O)[C@H](CC(C)C)NC(=O)[C@H](CC(C)C)NC(=O)CNC(=O)[C@H](CC(C)C)NC(=O)[C@@H]1CCCN1C(=O)[C@H](CC(C)C)NC(=O)[C@H](CC(=O)O)NC(=O)[C@@H](NC(=O)[C@H](CO)NC(=O)[C@@H](NC(=O)[C@@H]1CCCN1C(=O)[C@@H]1CCCN1C(=O)CNC(=O)[C@@H]1CCC(=O)N1)[C@@H](C)CC)[C@@H](C)CC)[C@@H](C)CC)[C@@H](C)CC)[C@@H](C)O)C(=O)O ([pGlu]GPPISIDLPLGLLRKMIEIEKQEKEKQQAANNRLLLDTI-OH) |  |  | 312 | 21.6 |
| CC[C@H](C)[C@H](NC(=O)[C@@H](NC(=O)[C@H](CC(=O)O)NC(=O)[C@H](CC(C)C)NC(=O)[C@H](CC(C)C)NC(=O)[C@H](CC(C)C)NC(=O)[C@H](CCCNC(=N)N)NC(=O)[C@H](CC(N)=O)NC(=O)[C@H](CC(N)=O)NC(=O)[C@H](C)NC(=O)[C@H](C)NC(=O)[C@H](CCC(N)=O)NC(=O)[C@H](CCC(N)=O)NC(=O)[C@H](CCCCN)NC(=O)[C@H](CCC(=O)O)NC(=O)[C@H](CCCCN)NC(=O)[C@H](CCC(=O)O)NC(=O)[C@H](CCC(N)=O)NC(=O)[C@H](CCCCN)NC(=O)[C@H](CCC(=O)O)NC(=O)[C@@H](NC(=O)[C@H](CCC(=O)O)NC(=O)[C@@H](NC(=O)[C@H](CCSC)NC(=O)[C@H](CCCCN)NC(=O)[C@H](CCCNC(=N)N)NC(=O)[C@H](CC(C)C)NC(=O)[C@H](CC(C)C)NC(=O)[C@H](Cc1ccc(O)cc1)NC(=O)[C@H](Cc1ccc(O)cc1)NC(=O)[C@@H]1CCCN1C(=O)[C@H](CC(C)C)NC(=O)[C@H](CC(=O)O)NC(=O)[C@@H](NC(=O)[C@H](CO)NC(=O)[C@@H](NC(=O)[C@@H]1CCCN1C(=O)[C@@H]1CCCN1C(=O)CNC(=O)[C@@H]1CCC(=O)N1)[C@@H](C)CC)[C@@H](C)CC)[C@@H](C)CC)[C@@H](C)CC)[C@@H](C)O)C(=O)O |  |  | 102 | 7 |
| CC[C@H](C)[C@H](NC(=O)[C@@H](NC(=O)[C@H](CCC(=O)O)NC(=O)[C@H](CCSC)NC(=O)[C@H](CC(C)C)NC(=O)[C@H](CCCCN)NC(=O)[C@H](CCCN=C(N)N)NC(=O)[C@H](CC(N)=O)NC(=O)[C@H](CO)NC(=O)[C@H](Cc1c[nH]cn1)NC(=O)[C@H](C)NC(=O)[C@H](CCC(N)=O)NC(=O)[C@H](CCC(N)=O)NC(=O)[C@H](C)NC(=O)[C@H](CC(C)C)NC(=O)[C@H](CCC(N)=O)NC(=O)[C@H](CCC(=O)O)NC(=O)[C@H](C)NC(=O)[C@H](CCCN=C(N)N)NC(=O)[C@H](C)NC(=O)[C@H](CCSC)NC(=O)[C@H](CCC(=O)O)NC(=O)[C@H](CC(C)C)NC(=O)[C@@H](NC(=O)[C@H](CCC(=O)O)NC(=O)[C@H](CCCN=C(N)N)NC(=O)[C@H](CC(C)C)NC(=O)[C@H](CC(C)C)NC(=O)[C@H](Cc1c[nH]cn1)NC(=O)[C@H](Cc1ccccc1)NC(=O)[C@@H](NC(=O)[C@H](CC(C)C)NC(=O)[C@H](CC(=O)O)NC(=O)[C@H](CC(C)C)NC(=O)[C@H](CO)NC(=O)[C@@H](NC(=O)[C@@H]1CCCN1C(=O)[C@@H]1CCCN1C(=O)[C@H](CCC(=O)O)NC(=O)[C@H](CCC(=O)O)NC(=O)[C@@H](N)CO)[C@@H](C)CC)[C@@H](C)O)C(C)C)[C@@H](C)CC)C(=O)O | 87 | 82 |  |  |
| CC[C@H](C)[C@H](NC(=O)[C@@H](NC(=O)[C@H](CCC(=O)O)NC(=O)[C@H](CCSC)NC(=O)[C@H](CC(C)C)NC(=O)[C@H](CCCCN)NC(=O)[C@H](CCCNC(=N)N)NC(=O)[C@H](CC(N)=O)NC(=O)[C@H](CO)NC(=O)[C@H](Cc1c[nH]cn1)NC(=O)[C@H](C)NC(=O)[C@H](CCC(N)=O)NC(=O)[C@H](CCC(N)=O)NC(=O)[C@H](C)NC(=O)[C@H](CC(C)C)NC(=O)[C@H](CCC(N)=O)NC(=O)[C@H](CCC(=O)O)NC(=O)[C@H](C)NC(=O)[C@H](CCCNC(=N)N)NC(=O)[C@H](C)NC(=O)[C@H](CCSC)NC(=O)[C@H](CCC(=O)O)NC(=O)[C@H](CC(C)C)NC(=O)[C@@H](NC(=O)[C@H](CCC(=O)O)NC(=O)[C@H](CCCNC(=N)N)NC(=O)[C@H](CC(C)C)NC(=O)[C@H](CC(C)C)NC(=O)[C@H](Cc1c[nH]cn1)NC(=O)[C@H](Cc1ccccc1)NC(=O)[C@@H](NC(=O)[C@H](CC(C)C)NC(=O)[C@H](CC(=O)O)NC(=O)[C@H](CC(C)C)NC(=O)[C@H](CO)NC(=O)[C@@H](NC(=O)[C@@H]1CCCN1C(=O)[C@@H]1CCCN1C(=O)[C@H](CCC(=O)O)NC(=O)[C@H](CCC(=O)O)NC(=O)[C@@H](N)CO)[C@@H](C)CC)[C@@H](C)O)C(C)C)[C@@H](C)CC)C(N)=O [HUMAN CORTICOTROPIN RELEASING FACTOR] |  |  | 20 |  |
| CC[C@H](C)[C@H](NC(=O)[C@@H](NC(=O)[C@H](CC(=O)O)NC(=O)[C@H](CC(C)C)NC(=O)[C@H](CC(C)C)NC(=O)[C@H](CC(C)C)NC(=O)[C@H](CCCN=C(N)N)NC(=O)[C@H](CC(N)=O)NC(=O)[C@H](CC(N)=O)NC(=O)[C@H](C)NC(=O)[C@H](C)NC(=O)[C@H](CCC(N)=O)NC(=O)[C@H](CCC(N)=O)NC(=O)[C@H](CCCCN)NC(=O)[C@H](CCC(=O)O)NC(=O)[C@H](CCCCN)NC(=O)[C@H](CCC(=O)O)NC(=O)[C@H](CCC(N)=O)NC(=O)[C@H](CCCCN)NC(=O)[C@H](CCC(=O)O)NC(=O)[C@@H](NC(=O)[C@H](CCC(=O)O)NC(=O)[C@@H](NC(=O)[C@H](CCSC)NC(=O)[C@H](CCCCN)NC(=O)[C@H](CCCN=C(N)N)NC(=O)[C@H](CC(C)C)NC(=O)[C@H](CC(C)C)NC(=O)[C@H](CCC(=O)O)NC(=O)[C@H](CC(C)C)NC(=O)[C@H](CO)NC(=O)[C@H](CC(C)C)NC(=O)[C@H](CC(=O)O)NC(=O)[C@@H](NC(=O)[C@H](CO)NC(=O)[C@@H](NC(=O)[C@@H]1CCCN1C(=O)[C@@H]1CCCN1C(=O)CNC(=O)[C@@H]1CCC(=O)N1)[C@@H](C)CC)[C@@H](C)CC)[C@@H](C)CC)[C@@H](C)CC)[C@@H](C)O)C(=O)O [SAUVAGINE] | 99 | 95 |  |  |
